Reference: publication PMC11590367, “Characterization of novel small molecule inhibitors of estrogen receptor-activation function 2 (ER-AF2)” (Breast Cancer Research : BCR, 2024)

What was measured:
Type in all cases: cell-based
[1] = test system: TamR3 spheroids; experiment: Viability assay in 3D spheroids, TamR3; conditions: 1:2 dilution from 50 µM, 1 nM E2; read-out: IC50 on growth (area) of TamR3 spheroids
[2] = target: ER-Y537S - SRC3 interaction (Homo sapiens, UniProt P03372, Y537S); experiment: Proximity ligation assay, ER-Y537S mutant; conditions: PLA, 10 µM
Chain of ER-Y537S - SRC3 interaction (P03372 whole entry Y537S): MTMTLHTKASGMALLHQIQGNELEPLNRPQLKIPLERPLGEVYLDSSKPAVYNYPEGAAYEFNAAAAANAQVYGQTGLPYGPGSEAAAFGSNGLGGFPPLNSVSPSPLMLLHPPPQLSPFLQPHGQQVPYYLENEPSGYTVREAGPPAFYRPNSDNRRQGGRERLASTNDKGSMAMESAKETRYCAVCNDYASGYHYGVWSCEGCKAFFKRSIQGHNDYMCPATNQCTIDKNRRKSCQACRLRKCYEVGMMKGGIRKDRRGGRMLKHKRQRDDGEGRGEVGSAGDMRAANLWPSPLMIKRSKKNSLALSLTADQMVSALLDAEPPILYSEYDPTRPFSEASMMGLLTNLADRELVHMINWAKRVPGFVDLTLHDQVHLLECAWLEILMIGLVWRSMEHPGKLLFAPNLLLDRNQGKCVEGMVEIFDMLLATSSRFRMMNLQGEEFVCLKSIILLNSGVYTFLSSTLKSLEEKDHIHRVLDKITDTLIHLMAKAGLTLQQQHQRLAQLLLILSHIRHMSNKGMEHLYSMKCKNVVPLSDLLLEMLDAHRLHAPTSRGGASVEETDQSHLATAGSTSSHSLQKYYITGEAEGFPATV
Method: (§1) MCF7 or TamR3 cells were starved for 72 h and then seeded onto PEI coated coverslips in a 6-well plate at 1 × 10^5 cells/well. For the E2 experiments, the cells were treated the following day with 10 µM of ER-AF2 inhibitor for 24 h, with E2 added 1 h before fixation. […] 24 h post-treatment, cells were fixed in methanol:acetone (3:1). Coverslips were then permeabilized with 0.05% Triton X-100 for 5 minutes at room temperature. The Duolink In Situ Detection Reagents Red kit from Millipore Sigma (DUO92008) was used for blocking and PLA according to the manufacturer’s protocol. Primary antibodies, Estrogen Receptor alpha antibody (F-10) (sc-8002) and Rabbit anti-SRC3 antibody (A300-348 A), were diluted 1:50 in antibody diluent.

[3] = target: T1, AR (ARR3tk-luc) in PC3 cells (Homo sapiens, UniProt P10275); experiment: Nuclear receptor luciferase transcriptional assay, AR; conditions: 1 or 5 µM, 0.1 nM R1881, PC3 cells
T1 construct: expressed in transfected cells; host or cells: PC3 cells
T1 sequence (P10275 whole entry): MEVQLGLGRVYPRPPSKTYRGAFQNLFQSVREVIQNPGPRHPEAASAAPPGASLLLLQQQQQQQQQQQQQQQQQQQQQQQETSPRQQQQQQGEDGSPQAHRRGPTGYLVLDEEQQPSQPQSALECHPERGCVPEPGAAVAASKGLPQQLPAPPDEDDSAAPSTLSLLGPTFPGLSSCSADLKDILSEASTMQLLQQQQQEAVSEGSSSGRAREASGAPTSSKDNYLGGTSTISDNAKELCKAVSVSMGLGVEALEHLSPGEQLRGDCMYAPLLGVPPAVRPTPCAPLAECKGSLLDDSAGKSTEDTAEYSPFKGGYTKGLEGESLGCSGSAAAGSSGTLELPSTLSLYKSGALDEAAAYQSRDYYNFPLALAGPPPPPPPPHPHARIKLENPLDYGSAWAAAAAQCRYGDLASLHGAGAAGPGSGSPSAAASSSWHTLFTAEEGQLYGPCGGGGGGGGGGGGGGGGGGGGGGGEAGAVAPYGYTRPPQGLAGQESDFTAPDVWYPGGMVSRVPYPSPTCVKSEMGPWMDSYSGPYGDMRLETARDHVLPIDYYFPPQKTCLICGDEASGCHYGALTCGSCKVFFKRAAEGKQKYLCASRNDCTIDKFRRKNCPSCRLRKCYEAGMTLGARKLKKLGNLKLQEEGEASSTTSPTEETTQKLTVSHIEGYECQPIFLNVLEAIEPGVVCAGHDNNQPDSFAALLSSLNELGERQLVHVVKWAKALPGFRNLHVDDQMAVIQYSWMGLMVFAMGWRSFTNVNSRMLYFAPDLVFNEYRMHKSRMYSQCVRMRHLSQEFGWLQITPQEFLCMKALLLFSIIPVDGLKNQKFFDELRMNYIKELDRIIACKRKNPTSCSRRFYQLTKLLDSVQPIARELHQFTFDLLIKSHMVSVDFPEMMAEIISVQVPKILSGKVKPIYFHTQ
Method: PC3 cells (androgen receptor (AR)-, glucocorticoid receptor (GR)[…], progesterone receptor (PR)-, ER-) were starved for 72 h then seeded into a 96-well plate at a density of 5,000 cells/well. 24 h later, cells were transfected with either ER, AR, GR, or PR and a luciferase plasmid (ERE-luc for ER and ARR3tk-luc for AR, GR, and PR). 24 h post-transfection, cells were simultaneously stimulated with 1 nM E2 for ER, 0.1 nM R1881 for AR, 1 nM Dexamethasone for GR, or 1 nM Levonorgestrel for PR, and treated with 1 or 5 µM of VPC-260724 24 h post-treatment, cells were lysed with 50 µl of passive lysis buffer (Promega #E1910). 20 µl of lysate was transferred to a white flat-bottom 96-well plate (Corning Life Sciences Cat#3912). Luminescence readings were obtained using the TECAN M200 Pro plate reader following the addition of 50 µl of luciferase reagent (Promega Luciferase Assay System E1500).

[4] = target: T2, ER-SRC3 interaction in TamR3 cells (Homo sapiens, UniProt P03372); experiment: Proximity ligation assay (PLA), TamR3
T2 construct: endogenous in cells; host or cells: MCF7 or TamR3 cells
T2 sequence (P03372 whole entry): as the sequence (P03372 whole entry Y537S) above, with S537Y counted along it
Method: as §1, with “protocol.” for “protocol. Primary antibodies, Estrogen Receptor alpha antibody (F-10) (sc-8002) and Rabbit anti-SRC3 antibody (A300-348 A), were diluted 1:50 in antibody diluent.”

[5] = target: ER D538G/F404L mutant (Homo sapiens, UniProt P03372, D538G/F404L); experiment: Transcriptional activity of fulvestrant resistant mutant ER; conditions: compared to DMSO
Chain of ER D538G/F404L mutant (P03372 whole entry F404L/D538G): as the sequence (P03372 whole entry Y537S) above, with F404L, S537Y, D538G counted along it

Cc1cccn2c(CNCc3cccc(N(C)C)n3)cnc12 [VPC-260724]
IC50 [1]: 27 ± 3.2 µM
Interaction between SRC3 and ER-Y537S [2]: inhibited the interaction
Transcriptional activity of AR [3]: did not significantly impact
ER-SRC3 interaction in TamR3 in presence of tamoxifen ([4]; 10 µM with 1 µM Tamoxifen): reduced this interaction
ER-SRC3 interactions (PLA signals per nuclei), TamR3 ([4]; 10 µM, 48 h, E2 stimulation): significantly reduced ER-SRC3 interactions
Transcriptional activity of mutant ER D538G/F404L [5]: significantly reduced the transcriptional activity
